Measured values published in ChEMBL document CHEMBL5380782, “Design, Biological Evaluation, and Computer-Aided Analysis of Dihydrothiazepines as Selective Antichlamydial Agents” (J Med Chem, 2023).
In brackets after ≈: the same amount, converted by molar mass. Activity calls are given as the source filed them. The calls are words filed in the database; no cut-off is given here.

Tests used:
Chlamydia trachomatis [1] = assay: Antibacterial activity against Chlamydia trachomatis serovar L2 infected in HEp-2 cells assessed as bacterial growth inhibition incubated for 16 hrs by IFA assay; assay type: functional, organism-based; details: serovar L2, HEp-2, 16 h
Salmonella typhimurium [2] = assay: Mutagenicity in Salmonella typhimurium TA98 assessed as number of revertants per plate at 10 ug pretreated for 90 mins measured after 66 hrs by AMES test (reference value: 25.67 +/- 5.51); assay type: functional, Salmonella enterica subsp. enterica serovar Typhimurium; details: dose 10 µg; time 67.5 hrs
[3] = Cytotoxicity against HEp-2 cells assessed as cell viability at 256 ug/ml incubated for 20 hrs by XTT assay relative to control; assay type: toxicity, cell-based; details: human, at 256 µg/mL, read-out: Activity
Escherichia coli [4] = assay: Antimicrobial activity against Escherichia coli K12 assessed as microbial growth inhibition incubated for 24 hrs by TTC staining based assay; assay type: functional
Chlamydia trachomatis [5] = assay: Antibacterial activity against Chlamydia trachomatis L2 infected in HEp-2 cells assessed as inhibition of infectious progeny incubated for 24 hrs by fluorescence microscopy; assay type: functional, organism-based; details: L2, HEp-2, 24 h
Escherichia coli [6] = assay: Antimicrobial activity against non-pathogenic Escherichia coli ATCC MG1655 assessed as microbial growth inhibition incubated for 24 hrs by TTC staining based assay; assay type: functional
Staphylococcus aureus = assay: Antimicrobial activity against Staphylococcus aureus USA 300 JE2 assessed as microbial growth inhibition incubated for 24 hrs by TTC staining based assay; assay type: functional
Blautia producta = assay: Antimicrobial activity against Blautia producta DSM 2950 assessed as microbial growth inhibition incubated for 48 hrs; assay type: functional
Pseudomonas aeruginosa = assay: Antimicrobial activity against Pseudomonas aeruginosa PA01 assessed as microbial growth inhibition incubated for 24 hrs by TTC staining based assay; assay type: functional
[7] = system: Lacticaseibacillus rhamnosus; assay: Antimicrobial activity against Lactobacillus rhamnosus CGMCC 1.3724 assessed as microbial growth inhibition incubated for 24 hrs by TTC staining based assay; assay type: functional
[8] = system: Bacteroides thetaiotaomicron; assay: Antimicrobial activity against Bacteroides thetaiotaomicron DSM 2079 assessed as microbial growth inhibition incubated for 48 hrs; assay type: functional
Thomasclavelia ramosa = assay: Antimicrobial activity against Clostridium ramosum DSM 1402 assessed as microbial growth inhibition incubated for 48 hrs; assay type: functional
Acinetobacter baumannii = assay: Antimicrobial activity against Acinetobacter baumannii 2208 assessed as microbial growth inhibition incubated for 24 hrs by TTC staining based assay; assay type: functional
Anaerostipes caccae = assay: Antimicrobial activity against Anaerostipes caccae […] assessed as microbial growth inhibition incubated for 48 hrs; assay type: functional
[9] = system: Lactiplantibacillus plantarum; assay: Antimicrobial activity against Lactobacillus plantarum DSM 20174 assessed as microbial growth inhibition incubated for 24 hrs; assay type: functional
Nakaseomyces glabratus = assay: Antimicrobial activity against Candida glabrata 2001 assessed as microbial growth inhibition by broth microdilution method; assay type: functional
Candida tropicalis = assay: Antimicrobial activity against Candida tropicalis 750 assessed as microbial growth inhibition by broth microdilution method; assay type: functional
Pichia kudriavzevii = assay: Antimicrobial activity against Pichia kudriavzevii 6558 assessed as microbial growth inhibition by broth microdilution method; assay type: functional
Salmonella typhimurium [10] = assay: Mutagenicity in Salmonella typhimurium TA100 assessed as number of revertants per plate at 2.5 ug pretreated for 90 mins measured after 66 hrs in presence of S9 by AMES test (reference value: 201 +/- 9.90); assay type: functional, Salmonella enterica subsp. enterica serovar Typhimurium; details: dose 2.5 µg; time 67.5 hrs
Salmonella typhimurium [11] = assay: Mutagenicity in Salmonella typhimurium TA98 assessed as number of revertants per plate at 2.5 ug pretreated for 90 mins measured after 66 hrs in presence of S9 fraction by AMES test (reference value: 24.33 +/- 9.50); assay type: functional, Salmonella enterica subsp. enterica serovar Typhimurium; details: dose 2.5 µg; time 67.5 hrs
[12] = Cytotoxicity against HEC-1-A cells assessed as cell survival at 256 ug/ml incubated for 20 hrs by XTT assay relative to control; assay type: toxicity, cell-based; details: human, at 256 µg/mL, read-out: Survival
[13] = Cytotoxicity against HEK293 cells assessed as cell survival at 256 ug/ml incubated for 20 hrs by XTT assay relative to control; assay type: toxicity, cell-based; details: human, at 256 µg/mL, read-out: Survival
HEp-2 = assay: Cytotoxicity against HEp-2 cells assessed as cell viability at 25 ug/ml incubated for 20 hrs by XTT assay relative to control; assay type: toxicity, cell-based; details: human, hep-2, 20 h, at 25 µg/mL
Chlamydia trachomatis [14] = assay: Antibacterial activity against Chlamydia trachomatis serovar L2 infected in HEp-2 cells assessed as bacterial growth inhibition at 25 to 0.39 ug/ml incubated for 16 hrs by IFA assay; assay type: functional, organism-based; details: dose 25-0.39 µg/ml
[15] = Cytotoxicity against HEK293 cells assessed as cell viability at 25 ug/ml incubated for 20 hrs by XTT assay relative to control; assay type: toxicity, cell-based; details: human, at 25 µg/mL, read-out: Activity
Chlamydia trachomatis [16] = assay: Inhibition of recombinant Chlamydia trachomatis ClpX ATPase activity assessed as reduction in ATP consumption at 25 ug/ml incubated for 60 mins by Kinase Glo assay relative to control; details: dose 25.0 µg/ml

Compound | IC50 (Chlamydia trachomatis [1]; read-out: IC50) | IC50 (Chlamydia trachomatis [1]; read-out: pIC50 (converted)) | further results
O=C1C2=C(NCCSC2c2ccc(Br)cc2)c2ccccc21 (stereo not given) | 21.3 µg/mL |  | 
COc1ccc(C2Nc3ccccc3NC3=C2C(=O)c2ccccc23)cc1 (stereo not given) | 22.6 µg/mL | 53.7 µM | 
Nc1ccc([N+](=O)[O-])cc1N |  |  | Activity (Salmonella typhimurium [2]): 34.5
O=C1C2=C(Nc3ccccc3SC2c2cccc(Cl)c2)c2ccccc21 (stereo not given) | 4.79 µg/mL | 12.9 µM | 
N#Cc1cccc(C2Sc3ccccc3NC3=C2C(=O)c2ccccc23)c1 (stereo not given) | 9 µg/mL |  | 
CC(=O)Oc1ccc(C2Sc3ccccc3NC3=C2C(=O)c2ccccc23)cc1 (stereo not given) | 7.18 µg/mL |  | 
O=C1C2=C(Nc3ccccc3SC2c2ccc(Cl)cc2)c2ccccc21 (stereo not given) | 6.59 µg/mL | 17.4 µM | 
Cc1ccc(C2Sc3ccccc3NC3=C2C(=O)c2ccccc23)cc1 (stereo not given) | 6.72 µg/mL |  | 
N#Cc1ccc(C2Sc3ccccc3NC3=C2C(=O)c2ccccc23)cc1 (stereo not given) | 10.2 µg/mL |  | 
O=C1C2=C(Nc3ccccc3SC2c2ccc(OCc3ccccc3)cc2)c2ccccc21 (stereo not given) | 22.8 µg/mL | 51.3 µM | 
O=C1C2=C(Nc3ccccc3SC2c2ccc(O)cc2)c2ccccc21 (stereo not given) | 14.4 µg/mL | 39.8 µM | 
N#Cc1ccccc1C1Sc2ccc(C(F)(F)F)cc2NC2=C1C(=O)c1ccccc12 (stereo not given) | 1.61 µM | 1.62 µM | viability at 20 h, 256 ug/ml [3]: 100%
COc1cccc(C2C3=C(Nc4ccccc4S2(=O)=O)c2ccccc2C3=O)c1 (stereo not given) | 10 µg/mL |  | 
COc1ccc(C2Sc3ccc(C(F)(F)F)cc3NC3=C2C(=O)c2ccccc23)cc1 (stereo not given) | 12.3 µg/mL | 28.2 µM | 
O=C1C2=C(Nc3ccccc3SC2c2ccc(OC(F)(F)F)cc2)c2ccccc21 (stereo not given) | 7.44 µg/mL | 17.4 µM | 
O=C1C2=C(Nc3cc(C(F)(F)F)ccc3SC2c2cccs2)c2ccccc21 (stereo not given) | 6.53 µg/mL |  | 
CC[C@H]1OC(=O)[C@H](C)[C@@H](O[C@H]2C[C@@](C)(OC)[C@@H](O)[C@H](C)O2)[C@H](C)[C@@H](O[C@@H]2O[C@H](C)C[C@H](N(C)C)[C@H]2O)[C@](C)(O)C[C@@H](C)CN(C)[C@H](C)[C@@H](O)[C@]1(C)O [AZITHROMYCIN] |  |  | MIC (Escherichia coli [4]): < 1 µg/mL; IC50 (Chlamydia trachomatis [5]): 0.06 µg/mL (≈ 0.0801 µM); MIC (Escherichia coli [6]): 2 µg/mL (≈ 2.67 µM); MIC (Staphylococcus aureus): 2 µg/mL (≈ 2.67 µM); MIC (Blautia producta): < 0.06 µg/mL; MIC (Pseudomonas aeruginosa): 125 µg/mL (≈ 167 µM); MIC [7]: 1 µg/mL (≈ 1.34 µM); MIC [8]: 0.5 µg/mL (≈ 0.668 µM); MIC (Thomasclavelia ramosa): < 0.06 µg/mL; MIC (Acinetobacter baumannii): < 1 µg/mL; MIC (Anaerostipes caccae): > 125 µg/mL; MIC [9]: 2 µg/mL (≈ 2.67 µM)
N#Cc1ccc(C2Nc3ccccc3NC3=C2C(=O)c2ccccc23)cc1 (stereo not given) | 20.9 µg/mL |  | 
COc1ccc(C2SCCNC3=C2C(=O)c2ccccc23)cc1 (stereo not given) | 16.1 µg/mL |  | 
COc1ccc(C2Sc3ccccc3N=C3C2=C(O)c2ccccc23)cc1 (stereo not given) | 14.7 µg/mL |  | 

Compound | IC50 (Chlamydia trachomatis [1]; read-out: IC50) | IC50 (Chlamydia trachomatis [1]; read-out: pIC50 (converted)) | further results
OC(Cn1cncn1)(Cn1cncn1)c1ccc(F)cc1F [FLUCONAZOLE] |  |  | MIC (Nakaseomyces glabratus): 2 µg/mL (≈ 6.53 µM); MIC (Candida tropicalis): 0.5 µg/mL (≈ 1.63 µM); MIC (Pichia kudriavzevii): 16 µg/mL (≈ 52.2 µM)
Cc1ccc(C2SCCNC3=C2C(=O)c2ccccc23)cc1 (stereo not given) | 21.4 µg/mL | 69.2 µM | 
COc1ccccc1C1Sc2ccc(C(F)(F)F)cc2NC2=C1C(=O)c1ccccc12 (stereo not given) | 2.46 µM | 2.51 µM | viability at 20 h, 256 ug/ml [3]: 100%
Cc1ccccc1C1Sc2ccccc2NC2=C1C(=O)c1ccccc12 (stereo not given) | 7.82 µM | 7.94 µM | 
Nc1ccc2cc3ccccc3cc2c1 [2-AMINOANTHRACENE] |  |  | Activity (Salmonella typhimurium [10]): 1256; Activity (Salmonella typhimurium [11]): 137
COc1ccccc1C1Sc2ccccc2NC2=C1C(=O)c1ccccc12 (stereo not given) | 3.32 µg/mL | 8.91 µM | viability at 20 h, 256 ug/ml [12]: ≥ 75%; IC50 (Chlamydia trachomatis [5]): 6.41 µg/mL (≈ 17.3 µM); viability at 20 h, 256 ug/ml [3]: 50%; viability at 20 h, 256 ug/ml [13]: ≥ 75%; Activity (HEp-2): 73%
O=C1C2=C(Nc3ccccc3SC2c2ccc(Cl)cc2Cl)c2ccccc21 (stereo not given) | 6.37 µg/mL | 15.5 µM | 
O=C(O)c1ccc(C2Sc3ccccc3NC3=C2C(=O)c2ccccc23)cc1 (stereo not given) |  |  | inhibition (Chlamydia trachomatis [14]): inactive
Cc1cccc(C2Sc3ccccc3NC3=C2C(=O)c2ccccc23)c1F (stereo not given) | 4.69 µg/mL | 12.6 µM | viability at 20 h, 256 ug/ml [12]: ≥ 75%; viability at 20 h, 25 ug/ml [15]: 78%; IC50 (Chlamydia trachomatis [5]): 7.13 µg/mL (≈ 19.1 µM); viability at 20 h, 256 ug/ml [3]: 50%; viability at 20 h, 256 ug/ml [13]: ≥ 75%; inhibition (Chlamydia trachomatis [16]): 20%
N#Cc1ccc(C2SCCNC3=C2C(=O)c2ccccc23)cc1 (stereo not given) |  |  | inhibition (Chlamydia trachomatis [14]): inactive; inhibition (Chlamydia trachomatis [16]): 20%
O=C1C2=C(Nc3ccccc3SC2c2ccccc2C(=O)O)c2ccccc21 (stereo not given) |  |  | inhibition (Chlamydia trachomatis [14]): inactive; inhibition (Chlamydia trachomatis [16]): 20%
O=C1C2=C(Nc3ccccc3SC2c2cccc(C(F)(F)F)c2)c2ccccc21 (stereo not given) | 5.18 µg/mL |  | 
O=C1C2=C(Nc3ccccc3SC2c2cccc(O)c2)c2ccccc21 (stereo not given) | 16.5 µg/mL | 45.7 µM | 
O=C1C2=C(Nc3ccccc3SC2c2ccc(-c3ccccc3)cc2)c2ccccc21 (stereo not given) |  |  | inhibition (Chlamydia trachomatis [14]): inactive
Nc1ccc(C2Sc3ccccc3NC3=C2C(=O)c2ccccc23)cc1 (stereo not given) | 17.6 µg/mL | 49 µM | 
Cc1ccc(C2Nc3ccccc3NC3=C2C(=O)c2ccccc23)cc1 (stereo not given) | 15 µg/mL |  | 
O=C1C2=C(Nc3ccccc3SC2c2cccc([N+](=O)[O-])c2)c2ccccc21 (stereo not given) | 6.35 µg/mL |  | 
O=C1C2=C(Nc3cc(C(F)(F)F)ccc3SC2c2ccc(Br)cc2)c2ccccc21 (stereo not given) | 6.93 µg/mL |  | 
O=C1C2=C(Nc3ccccc3SC2c2cccs2)c2ccccc21 (stereo not given) | 7.36 µg/mL |  | 
O=C1C2=C(Nc3ccccc3SC2c2ccc([N+](=O)[O-])cc2)c2ccccc21 (stereo not given) | 9.01 µg/mL |  | 
